What is called pEC50 is −log10 of the EC50, conventionally taken in molar units. A high value points to a small EC50.

Five compounds from patent US7709511B2, “Benzothiazolone derivatives” (AstraZeneca AB, priority 2005, dated 2010) can be followed below.

In assay [1] the target is T1, Adrenergic β2 (Homo sapiens, UniProt P07550).
T1 construct: endogenous in cells; host or cells: H292 cells
Nature of the assay: Adrenergic β2 mediated cAMP production in H292 cells (AlphaScreen cAMP detection). To be noted: for pEC50: cAMP, test compounds incubated 10 minutes at room temperature, 300 μM rolipram; for Intrinsic Activity: fraction relative to the maximum activity determined for formoterol, 10 minutes incubation. It counts as cell-based. As for the experimental part:
Adrenergic β2 Mediated cAMP Production
H292 cells were grown in RPMI (Roswell Park Memorial Institute) medium containing, 10% (v/v) FBS (foetal bovine serum) and 2 mM L-glutamine. Cells were grown in 225 cm2 flasks containing 25 mL media in a humidified incubator at 37° C., 5% CO2. Cells were harvested from the flask and passaged at a 1 in 10 dilution once per week.
The media from flasks containing H292 cells was removed, rinsed with 10 mL PBS (phosphate buffered saline) and replaced with 10 mL Accutase™ cell detachment solution. Flasks were incubated for 15 minutes in a humidified incubator at 37° C., 5% CO2. The cell suspension was counted and the cells re-suspended in RPMI media (containing 10% (v/v) FBS and 2 mM L-glutamine) at 0.05×10^6 cells per mL. 5000 cells in 100 μL were added to each well of a tissue-culture-treated 96-well plate and the cells incubated overnight in a humidified incubator at 37° C., 5% CO2. The culture media was removed, washed twice with 100 μL assay buffer and replaced with 50 μL assay buffer. Cells were rested at room temperature for 20 minutes after which time 25 μL of rolipram (1.2 mM made up in assay buffer containing 2.4% (v/v) dimethylsulphoxide) was added. Cells were incubated with rolipram for 10 minutes after which time test compounds (made up as ×4 concentrated stocks in assay buffer containing 4% (v/v) dimethylsulphoxide) were added and the cells were incubated for 10 minutes at room temperature. Final rolipram concentration in the assay was 300 μM and final vehicle concentration was 1.6% (v/v) dimethylsulphoxide. The reaction was stopped by removing supernatants, washing once with 100 μL assay buffer and replacing with 50 μL lysis buffer. The cell monolayer was frozen at −80° C. for 30 minutes (or overnight).
(§1) AlphaScreen™ cAMP Detection
(§2) The concentration of cAMP (cyclic adenosine monophosphate) in the cell lysate was determined using the AlphaScreen™ methodology. The frozen cell plate was thawed for 20 minutes on a plate shaker then 10 μL of the cell lysate was transferred to a 96-well white plate. 40 μL of mixed AlphaScreen™ detection beads (containing equal volumes of donor beads (pre-incubated with biotinylated cAMP in the dark for 30 minutes) and acceptor beads), was added to each well and the plate incubated at room temperature for 10 hours in the dark. The AlphaScreen™ signal was measured using an EnVision spectrophotometer (Perkin-Elmer Inc.) with the recommended manufacturer's settings. cAMP concentrations were determined by reference to a calibration curve determined in the same experiment using standard cAMP concentrations (made up in lysis buffer in a 96-well tissue-culture-treated plate and frozen/thawed alongside the test samples) and detected using the same protocol. Concentration response curves for agonists were constructed to determine both the pEC50 and Intrinsic Activity. Intrinsic Activity was expressed as a fraction relative to the maximum activity determined for formoterol in each experiment.
For orientation: Changes in cAMP serve as a functional read-out for many G protein-coupled receptors.

For assay [2], the target named is T1, Adrenergic β2. Nature of the assay: Alternative adrenergic β2 mediated cAMP production in H292 cells (AlphaScreen cAMP detection). The class given is cell-based. To be noted: for EC50: cAMP, test compounds incubated 60 minutes at room temperature, 300 μM rolipram, read-out: β2 pEC50 (converted); for β2 Int Act: fraction relative to the maximum activity determined for formoterol, 60 minutes incubation. As for the experimental part: Alternative Adrenergic β2 Mediated cAMP Production Cell Preparation
H292 cells were grown in 225 cm2 flasks incubator at 37° C., 5% CO2 in RPMI medium containing, 10% (v/v) FBS (foetal bovine serum) and 2 mM L-glutamine.
Adherent H292 cells were removed from tissue culture flasks by treatment with Accutase™ cell detachment solution for 15 minutes. Flasks were incubated for 15 minutes in a humidified incubator at 37° C., 5% CO2. Detached cells were re-suspended in RPMI media (containing 10% (v/v) FBS and 2 mM L-glutamine) at 0.05×10^6 cells per mL. 5000 cells in 100 μL were added to each well of a tissue-culture-treated 96-well plate and the cells incubated overnight in a humidified incubator at 37° C., 5% CO2. The culture media was removed and cells were washed twice with 100 μL assay buffer and replaced with 50 μL assay buffer (HBSS solution containing 10 mM HEPES pH7.4 and 5 mM glucose). Cells were rested at room temperature for 20 minutes after which time 25 μL of rolipram (1.2 mM made up in assay buffer containing 2.4% (v/v) dimethylsulphoxide) was added. Cells were incubated with rolipram for 10 minutes after which time test compounds were added and the cells were incubated for 60 minutes at room temperature. The final rolipram concentration in the assay was 300 μM and final vehicle concentration was 1.6% (v/v) dimethylsulphoxide. The reaction was stopped by removing supernatants, washing once with 100 μL assay buffer and replacing with 50 μL lysis buffer. The cell monolayer was frozen at −80° C. for 30 minutes (or overnight).
as §1
as §2, with “using” for “using the”, “pre-incubated” for “(containing equal volumes of donor beads (pre-incubated”, “cAMP,” for “cAMP in the dark for 30 minutes) and acceptor beads),”, “concentrations.” for “concentrations (made up in lysis buffer in a 96-well tissue-culture-treated plate and frozen/thawed alongside the test samples) and detected using the same protocol.”, “constructed and data was fitted to a four parameter logistic equation” for “constructed”

pEC50: −log10 of the molar value.

T1 sequence (P07550 whole entry): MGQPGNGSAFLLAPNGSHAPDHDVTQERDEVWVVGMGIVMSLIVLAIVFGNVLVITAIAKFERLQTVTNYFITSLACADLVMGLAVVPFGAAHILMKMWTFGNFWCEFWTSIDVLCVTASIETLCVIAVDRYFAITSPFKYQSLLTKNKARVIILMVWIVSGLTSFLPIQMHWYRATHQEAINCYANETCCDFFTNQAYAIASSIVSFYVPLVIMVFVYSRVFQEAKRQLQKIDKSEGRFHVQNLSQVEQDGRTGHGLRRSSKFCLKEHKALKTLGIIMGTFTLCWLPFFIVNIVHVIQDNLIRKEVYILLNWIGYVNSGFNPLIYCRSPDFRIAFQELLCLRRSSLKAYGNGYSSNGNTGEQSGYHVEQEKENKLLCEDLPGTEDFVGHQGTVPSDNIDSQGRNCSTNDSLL

As for `CC(C)(C)OC(=O)N1CCC(CN(CCNCCc2ccc(O)c3[nH]c(=O)sc23)C(=O)CCOCCc2ccccc2)CC1` [Example 1, tert-Butyl 4-({(2-{[2-(4-hydroxy-2-oxo-2,3-dihydro-1,3-benzothiazol-7-yl)ethyl]amino}ethyl)[3-(2-phenylethoxy)propanoyl]amino}methyl)piperidine-1-carboxylate], in assay [1], the pEC50 was 7.20 and the “Intrinsic Activity” value is on record as 0.7.

`O=C(CCOCCc1ccccc1)N(CCNCCc1ccc(O)c2[nH]c(=O)sc12)Cc1cccnc1` [Example 5, N-[2-[2-(4-Hydroxy-2-oxo-3H-benzothiazol-7-yl)ethylamino]ethyl]-3-phenethyloxy-N-(3-pyridylmethyl)propanamide]: in assay [1], the pEC50 is 7.90 and the “Intrinsic Activity” value was found to be 0.8.

Turning to `O=C(CCOCCc1ccccc1)N(CCCNCCc1ccc(O)c2[nH]c(=O)sc12)CCc1ccccc1` [Example 8, N-(3-{[2-(4-Hydroxy-2-oxo-2,3-dihydro-1,3-benzothiazol-7-yl)ethyl]amino}propyl)-3-(2-phenylethoxy)-N-(2-phenylethyl)propanamide], in assay [1], the pEC50 was 8.90 and the “Intrinsic Activity” value turned out to be 0.7.

With `O=C(CCOCCc1ccc(Br)cc1)N(CCNCCc1ccc(O)c2[nH]c(=O)sc12)CCc1ccccc1` [Example 10, 3-[2-(4-Bromophenyl)ethoxy]-N-[2-[2-(4-hydroxy-2-oxo-3H-benzothiazol-7-yl)ethylamino]ethyl]-N-phenethyl-propanamide], in assay [2], the EC50 is 7.94 nM and the “β2 Int Act” value stood at 0.7. Besides, in assay [1], the pEC50 was 8.30 and the “Intrinsic Activity” value came to 0.6.

For the compound `CCN(CC)CCN(CCNCCc1ccc(O)c2[nH]c(=O)sc12)C(=O)CCOCCc1ccccc1` [Example 12, N-[2-(Diethylamino)ethyl]-N-(2-{[2-(4-hydroxy-2-oxo-2,3-dihydro-1,3-benzothiazol-7-yl)ethyl]amino}ethyl)-3-(2-phenylethoxy)propanamide], in assay [2], the EC50 is 7.94 nM and the “β2 Int Act” value came to 0.8. Moreover, in assay [1], the pEC50 was 7.80 and the “Intrinsic Activity” value is on record as 0.8.
